Source: PubChem BioAssay AID504726 (Broad Institute, 2011)
Calls of active or inactive are those of the source.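 The calls were made as follows: active = fitted half-maximal concentration for a cytotoxic signal drop no higher than ten times the top valid dose tested; inconclusive = flat curve between -70 and -30 percent, or an unreliable fit; inactive = flat within 30 percent, signal rise, or potency beyond limit.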

Assay: viability loss in HeLa cells – cell-based, 24 h, cherry-picked samples, cytotoxicity control, dose response (AID 504726);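 also: 0% = DMSO neutral controls and -100% = mitoxantrone positive controls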
Details: HeLa viability, CellTiter-Glo ATP luminescence, 24 h; at 35 µM (top of the series)

SMILES	activity change, negative = cytotoxicity
CC(C)C(C(=O)O)N1C(=O)/C(=C/C=C/c2ccco2)SC1=S (configuration not stated)	-14.8% (inactive)
CCN(CC)C(=O)C1c2ccccc2Oc2ccccc21	-12.1% (inactive)
COc1ccc(C(=O)OCC(=O)NC2CC2)cc1S(=O)(=O)Nc1ccc(C)cc1	3.27% (inactive)
CCOC(=O)C1=C(O)/C(=C/c2cc(C)n(-c3ccccc3)c2C)N=C1C	3.92% (inactive)
Cc1nnc(NC(=O)CN2C(=O)NC3(CCCC3)C2=O)s1	-0.18% (inactive)
COCCN(CCOC)Cc1c(O)ccc2c1O/C(=C\c1ccco1)C2=O	-13.7% (inactive)
CCN(CC)C(=S)SC1CCCCN(C(=O)c2ccccc2)C1=O (configuration not stated)	-6.6% (inactive)
NC(=S)COc1ccccc1	-7.95% (inactive)
CCn1c(O)c(N=Nc2cccc(S(=O)(=O)N3CCOCC3)c2)c(=O)n(CC)c1=S	7.72% (inactive)
CC(C(=O)Nc1ccc(C(=O)O)c(O)c1)N1C(=O)/C(=C\c2ccco2)SC1=S (configuration not stated)	-7.47% (inactive)
Oc1ccc2ccc3cccc[n+]3c2c1	-13.8% (inactive)
CCCn1c(SCC(=O)NCc2cccs2)nc2c1c(=O)n(C)c(=O)n2C	7.8% (inactive)
CN1CCN(CCCNC(=O)c2cc3c(-c4ccc(Cl)cc4)nn(C)c3s2)CC1	-18.2% (inactive)
COc1ccc(OCC(=O)N2CCN(c3cccc(C(F)(F)F)c3)CC2)cc1	-8.78% (inactive)
NC1=NC[C@@H](Cc2ccc(O)cc2)N1CCc1cc(C(F)(F)F)cc(C(F)(F)F)c1	-9.29% (inactive)
CC(=O)OCCn1c2nc(=O)[nH]c(=O)c-2nc2cc(C)c(C)cc21	-8.08% (inactive)
Cn1c2ccccc2c2cnn(CC(=O)Nc3cccc(F)c3)c(=O)c21	-9.52% (inactive)
COc1cccc(OCCCn2cc(/C=C3/C(=N)N4C=C(C)SC4=NC3=O)c3ccccc32)c1	-7.08% (inactive)
O=C1c2ccccc2C(Nc2ccc3c(c2)OCCO3)N1Cc1ccc2c(c1)OCO2 (configuration not stated)	-13.3% (inactive)
Cc1cccc(C)c1NC(=O)CSc1nnc(-c2ccco2)c(-c2ccco2)n1	-6.45% (inactive)
COc1ccc(-c2cc(C(F)(F)F)n3ncc(C(=O)N4CCCCC4c4cccnc4)c3n2)cc1 (configuration not stated)	-6.34% (inactive)

SMILES	activity change, negative = cytotoxicity
O=C(Nc1ccc2c(c1)OCO2)N1CCCc2ccccc21	-15.9% (inactive)
Cc1cc(/C=N/Nc2ccc([N+](=O)[O-])cn2)c(C)n1-c1cccc(C(=O)O)c1	-4.63% (inactive)
O=c1[nH][nH]cc1C=Nc1ccc(Cl)cc1Cl	-7.34% (inactive)
COc1ccc(C2C(C(=O)c3cccs3)=C(O)C(=O)N2c2nncs2)cc1 (configuration not stated)	-14.2% (inactive)
O=S(=O)(NCc1cccnc1)c1ccc(Cl)s1	4.67% (inactive)
COc1ccc(/C=C/c2cc(C(F)(F)F)[nH]c(=O)n2)cc1OC	-6.08% (inactive)
O=S(=O)(O)c1cc(O)c2cc(Nc3ccccc3)ccc2c1	-1.35% (inactive)
COc1ccc(NS(=O)(=O)c2ccc3c(c2)[C@H]2C=CC[C@H]2[C@@H](c2ccc(C(=O)O)cc2)N3)cc1	-3.11% (inactive)
O=C(O)c1ccc(-n2cccc2/C=C2/NC(=O)N(c3cccc(Cl)c3)C2=O)cc1	-3.84% (inactive)
Nc1ccc2c(O)cc(S(=O)(=O)O)cc2c1	-11% (inactive)
COc1cc(SC)ccc1C(=O)OCC(=O)N1CCN(C(C)=O)CC1	11.9% (inactive)
Cc1cc(Cl)ccc1N1C(=O)CC(NNC(=O)c2cccnc2)C1=O (configuration not stated)	5.15% (inactive)
Cc1ccc(-c2nnc(-c3ccc(NC(=O)c4ccco4)cc3)o2)cc1	-2.7% (inactive)
O=C(c1coc(=O)c(Br)c1)N1CCCc2ccccc21	-15% (inactive)
O=C(O)c1ccc2c(c1)C(=O)/C(=C\c1ccco1)C2=O	3.44% (inactive)
Cc1nc2c(=O)[nH]c(=S)[nH]c2[nH]c1=O	1.86% (inactive)
FC(F)(F)c1nnc(-c2ccccc2)nc1N1CCCC1	-13.4% (inactive)
Cc1cc(=O)c2c([nH]1)c(C)cc1[nH]c(C)c(C)c12	-3.16% (inactive)
O=S(=O)(O)c1cccc2cccc(Nc3ccccc3)c12	-4.31% (inactive)
O=c1oc2ccccc2nc1/C=C(\O)c1ccc(Br)cc1	-12.7% (inactive)
CC(C)=C1C2C=CC1C(C(=O)Nc1cc(C)ccc1C)C2C(=O)O (configuration not stated)	-4.56% (inactive)

SMILES	activity change, negative = cytotoxicity
CC(C)c1ccc(CNc2ccc([N+](=O)[O-])cn2)cc1	-10.7% (inactive)
O=C(O)/C(=C\c1cccs1)Sc1nnc(-c2ccc(F)cc2)o1	0.075% (inactive)
Cn1c(=O)c(NCCc2ccccc2)c2c3c(cccc31)C(=O)c1ccccc1-2	-38.4% (inactive)
COc1ccc(-c2cc(C(=O)N(C)CCc3ccc(OC)c(OC)c3)c3ccccc3n2)cc1	-7.16% (inactive)
COc1cccc(NC(=S)N2CCN(C(c3ccccc3)c3ccccc3)CC2)c1	-2.14% (inactive)
Nc1ccccc1C(=O)N1O[C@@H]2C=C[C@H]1CC2	-9.71% (inactive)
O=c1[nH]nc(CSCc2ccccc2Cl)[nH]1	-3.66% (inactive)
COc1cc(OC)cc(-c2c(-c3ccsc3)c3cc(Br)ccc3n2C)c1	-23.6% (inactive)
O=C(O)CN1C(=O)/C(=C\c2cc(Br)ccc2OCc2ccc([N+](=O)[O-])cc2)SC1=S	-1.76% (inactive)
Cc1cc(C)nc(SCC(=O)N/N=C/c2cc(C)n(-c3ccccc3C)c2C)n1	-7.55% (inactive)
C/C(=N/NC(=O)c1cc(O)c(O)c(O)c1)c1ccc([N+](=O)[O-])cc1	-1.35% (inactive)
O=C(CCn1c(=S)oc2ccccc21)N1CCN(c2ccc(F)cc2)CC1	2.32% (inactive)
O=C(O)COc1ccc2c(c1)O/C(=C\c1ccco1)C2=O	-1.96% (inactive)
Cc1n[nH]c(C)c1N1C(=O)c2cccc3c(N4CCCCCC4)ccc(c23)C1=O	-15.8% (inactive)
N#CC1=C(N)Oc2ccc3ccc(O)cc3c2C1c1ccsc1 (configuration not stated)	5.49% (inactive)
CN(c1ccc(OCC(=O)OCC(=O)c2c(N)n(C)c(=O)n(C)c2=O)cc1)S(=O)(=O)c1ccc2ccccc2c1	3.95% (inactive)
Cc1noc(C)c1-c1nc(CSc2ccccc2)no1	-16.7% (inactive)
CSc1n[nH]c(=O)n1-c1cccc(Cl)c1	12.8% (inactive)
Cc1ccc(NC(=S)N/C(=N/S(=O)(=O)c2ccccc2)c2ccccc2)cc1	6.71% (inactive)
CC(C)C(=O)N1CCN(c2ccccc2NC(=S)NC(=O)c2ccco2)CC1	-12.9% (inactive)
